Measured values reported in patent US6713051B2, “Antiperspirant or deodorant compositions” (Unilever Home & Personal Care USA division of Conopco, Inc., priority 2001, dated 2004).

Legend:
Assay type in all cases: cell-based
[1] = system: interleukin-6 (IL-6); test: Skin organotypic culture analysis: AP-induced IL-6 release into the medium; details: for IL-6 release (mean ± SD): 24 h, Nil 21.5, AP 57.1
Experimental: (§1) The cultures were then incubated at 37° C., 5% CO2, and 95% relative humidity (standard cell culture conditions) for 24 h. The culture medium was assayed for the pro-inflammatory cytokine interleukin-6 (IL-6) and after washing to remove the AP formulation, the viability of the culture was determined using the Thiazoyl blue (MTT) assay (Mosmann, T. J. Immunol. Methods 65, p55 (1983). IL-6 was determined using an Immunoassay (Quantikine, R&D systems).
(§2) In this Example, skin organotypic cultures (Epiderm™, MatTek, USA) were treated topically with the above-identified AP formulation and the trans-10-cis-12 conjugated linoleic acid (TC CLA) was introduced into the medium. The cultures were then incubated at 37° C., 5% CO2, and 95% relative humidity (standard cell culture conditions) for 24 h. The culture medium was assayed for the pro-inflammatory cytokine interleukin-6 (IL-6) and after washing to remove the AP formulation, the viability of the culture was determined by the method described in Example 2.
as §1, with “hours.” for “h.”, “MTT assay.” for “Thiazoyl blue (MTT) assay (Mosmann, T. J. Immunol. Methods 65, p55 (1983).”, “ELISA assay (R&D” for “Immunoassay (Quantikine, R&D”

[2] = system: skin organotypic cultures (Epiderm); test: Viability of skin organotypic cultures (MTT assay)
Experimental: as §1, §2
as §1, with “hours.” for “h.”, “MTT assay.” for “Thiazoyl blue (MTT) assay (Mosmann, T. J. Immunol. Methods 65, p55 (1983).”, “ELISA assay (R&D” for “Immunoassay (Quantikine, R&D”

[3] = system: Human foreskin keratinocytes; test: Keratinocyte proliferation analysis (DNA content per well, Pico Green); details: for DNA: 4 days, control (0 μM) 3.5
Experimental: Human foreskin keratinocytes (passage 3) were seeded at 4000 cells/well in 96 well plates in Keratinocyte Growth Medium (abbreviated to KGM) containing 0.03 mM calcium and grown for 3 days at 37° C. The cells were then treated with PPAR ligands in KGM containing 0.03 mM calcium for 4 days prior to harvest. Stock solutions of PPAR ligands were dissolved in dimethylsulphoxide (DMSO) and diluted in KGM before adding to the cells. […] The harvested cells were washed 3× in phosphate buffered saline (PBS) and extracted in 1% Triton X100, 50 mM (tris[hydroxymethyl]aminomethane) (Tris) pH 8.0 plus protease inhibitors pepstatin and leupeptin (100 μl/well). The extract was assayed for DNA content using the Pico Green DNA assay (Molecular Probes, Inc.).
Cultured keratinocytes were treated with cis-9-trans-11 conjugated linoleic acid (CT-CLA) for 4 days. The cells were extracted with Tris-1% Triton X100 and the DNA content per well was determine by the Pico Green assay in accordance with the above described procedure.

For `CC\C=C/C=C/C=C/C=C\CCCCCCCC(=O)O` [cis parinaric acid, cis-parinaric acid], the “AP-induced IL-6 release” value ([1]; 1-100 μM, Dunnet's test p<0.05) was “significantly decrease”, the “IL-6 release (mean ± SD)” value ([1]; Table 14: 1.0 μM (+ AP)) was 26.8 and the “IL-6 release (mean ± SD)” value ([1]; Table 14: 10.0 μM (+ AP)) was 23.3. For the same compound, the “IL-6 release (mean ± SD)” value ([1]; Table 14: 100.0 μM (+ AP)) was 25.7, the Culture viability [2] was “not significantly different” and the “keratinocyte DNA synthesis activity, statement” value ([3]; Example 12: 10 and 20 μM, 1 way ANOVA, p<0.05) was “significantly reduce”. The DNA ([3]; Table 13: 1 μM) was 3.3 ng/well, the DNA ([3]; Table 13: 5 μM) was 4.1 ng/well and the DNA ([3]; Table 13: 10 μM) was 2.6 ng/well. The DNA ([3]; Table 13: 20 μM) was 1.5 ng/well.
